Test results: patent US8798939B2, “Methods for designing, selecting and/or optimizing allosteric processing inhibitors for matrix metalloproteinases” (Janssen Pharmaceutica N.V., priority 2011, dated 2014)

Biological target: T1, proMMP9 activation to active MMP9 in HFL-1 cells (Homo sapiens, UniProt P14780)
T1 construct: endogenous in cells; host or cells: HFL-1 (ATCC CCL-153), TNFα plus 30 nM human neutrophil elastase
Assay: Activation of proMMP9 by human fetal lung fibroblast (HFL-1) cultures (Western blot)
Format: cell-based
Details: 3.3 μM, 72 hrs, mAb-L51/82
Description: Example 2 was assessed additionally for ability to block the maturation of proMMP9 to active MMP9 in cultures of human fetal lung fibroblasts (HFL-1, American Type Culture Collection #CCL-153). Unlike rat synoviocytes, HFL-1 cells were unable to process proMMP9 to the active form without addition of neutrophil elastase. […] Rather, the function of elastase in this assay may be to inactivate tissue inhibitors of matrix metalloproteinases (TIMPs) that repress endogenous pathways of MMP9 activation (Skold, Liu et al. 1999).
HLF-1 were maintained in monolayer culture in DMEM with 10% FCS and were used between passage numbers 5-15. HLF-1 were embedded in collagen gels as described for rat SCW synoviocytes (vida supra). […] The plates were cultured an additional 72 hrs, at which time MMP9 secreted into the conditioned media was bound to gelatin-sepharose and evaluated by Western blot analysis as described for the rat synoviocyte cultures (vida supra). mAb-51/82 detected three forms of MMP9 in HFL-1 cultures.
A second experiment was performed to determine if the 80 kD form was mature active MMP9 and to determine the potency of Example 2 as an inhibitor of MMP9 maturation in this assay. […] In the absence of Example 2, pAb-1246 readily detected MMP9 with an electrophoretic mobility of approximately 80 kD. […]

T1 sequence (P14780 20-707 limits assumed): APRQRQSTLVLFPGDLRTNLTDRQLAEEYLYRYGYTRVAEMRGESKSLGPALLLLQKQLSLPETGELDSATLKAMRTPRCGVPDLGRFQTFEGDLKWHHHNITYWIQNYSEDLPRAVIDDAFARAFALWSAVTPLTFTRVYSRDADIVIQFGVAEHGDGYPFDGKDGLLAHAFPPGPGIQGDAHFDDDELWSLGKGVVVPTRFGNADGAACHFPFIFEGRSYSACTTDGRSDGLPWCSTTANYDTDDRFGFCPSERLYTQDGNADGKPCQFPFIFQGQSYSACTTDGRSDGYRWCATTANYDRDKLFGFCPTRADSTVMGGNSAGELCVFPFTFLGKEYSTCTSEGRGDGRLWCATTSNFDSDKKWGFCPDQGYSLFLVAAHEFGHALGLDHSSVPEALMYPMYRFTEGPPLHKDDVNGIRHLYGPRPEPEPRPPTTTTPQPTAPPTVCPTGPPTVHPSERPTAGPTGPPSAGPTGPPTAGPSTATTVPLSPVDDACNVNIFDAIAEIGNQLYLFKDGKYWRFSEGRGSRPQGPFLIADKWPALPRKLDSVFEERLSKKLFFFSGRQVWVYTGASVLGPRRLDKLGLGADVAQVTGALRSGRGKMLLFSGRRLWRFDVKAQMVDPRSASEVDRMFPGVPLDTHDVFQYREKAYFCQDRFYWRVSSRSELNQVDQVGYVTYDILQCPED

Signal Total: 91346 INT * mm^2
Compound: Cc1nc(C)c(-c2csc(Nc3cc(S(N)(=O)=O)ccc3OC(C)C)n2)s1 [Example 2, 3-(2′,4′-Dimethyl-[4,5′]bithiazolyl-2-ylamino)-4-isopropoxy-benzenesulfonamide.HBr]
